Drawing on PubChem BioAssay (NCI), this text covers TGI and GI50 for 13 compounds.

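Cells were grown in 96-well plates and exposed to each compound for 48 hours at five concentrations; endpoints were interpolated linearly between bracketing concentrations, or set to the highest concentration if not reached. GI50 is the concentration that inhibits growth by half. TGI marks complete inhibition of growth.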 Where a SMILES comes first, the peptide text is derived from it. [ ]: non-standard residue; d: D form. The star is where a group is joined. ξ: configuration not given here. X6 = FC(F)(F)c1cc(NC(=S)*)cc(C(F)(F)F)c1; ξF = NC(Cc1ccccc1)C(=O)O

The first assay concerns SF-295 CNS. Put plainly: NCI anticancer screen, dose series, 48 h.
Compound `O=C1C2C(C(=O)N1OS(=O)(=O)c1ccccc1)N(Cc1ccccc1)C(=O)N2Cc1ccccc1` (stereo not given) registered a TGI of over 100 µM.

The compound `O=C(COc1ccc(Br)cc1Br)N1N=C(c2ccc([N+](=O)[O-])o2)CC1(O)c1ccccc1` (stereo not given) yielded a TGI of 53.7 µM.

For the compound `COc1cc(-c2nn(-c3ccc(NC(=O)c4ccc(Cl)c(C(F)(F)F)c4)cc3)cc2-c2ccncc2)ccc1Cl`, the GI50 was 255 nM and the TGI is 0.948 µM.

For the compound `O=C(Nc1ccccc1OC(F)(F)F)Nc1n[nH]c2ccccc12`, the GI50 is 39000 nM and the TGI is over 100 µM.

With `O=C(/C=C/C12c3ccccc3C(c3ccccc31)C1C(=O)NC(=O)C12)c1ccncc1` (stereo not given), the GI50 is 2590 nM and the TGI came out at 7.54 µM.

Consider `O=C1C(=O)N(c2ccc(Cl)cc2Cl)C(=O)C(=O)C1c1nc2ccccc2s1`, for which the TGI was over 100 µM.

Compound `O=CN/C=C/c1cc(O)ccc1O` registered a TGI of over 100 µM.

With `COC(=O)[C@@H](NC(=O)CNC(=O)[C@H]1CCCN1C(=O)C(Cc1ccccc1)NC(=S)Nc1cc(C(F)(F)F)cc(C(F)(F)F)c1)C(C)C` (stereo not given in full) (X6-[ξF][dP]GV-OMe), the GI50 is 2330 nM and the TGI worked out at 6.12 µM.

Consider `Cn1cc(C2=C(c3cn(C)c4ncccc34)C(=O)NC2=O)c2ccccc21`, for which the GI50 was 7180 nM and the TGI was over 25 µM.

`Clc1cc2nsnc2c(Cl)n1`: the TGI is over 100 µM.

On to `O=C1/C(=C/c2cccc([N+](=O)[O-])c2)COc2ccc(O)cc21`, for which the GI50 is 6940 nM and the TGI was found to be 19.8 µM.

Consider `Clc1ccc2c(NCCCCNc3nc(N4CCCCC4)nc4ccccc34)ccnc2c1`, for which the GI50 is 1220 nM and the TGI stood at 2.6 µM.

Compound `Cc1nc2ccccc2c(=O)n1-c1ccccc1I` showed a TGI of over 100 µM.

A further assay relates to SK-MEL-28 melanoma. Description: NCI anticancer screen, dose series, 48 h.
`O=C1C2C(C(=O)N1OS(=O)(=O)c1ccccc1)N(Cc1ccccc1)C(=O)N2Cc1ccccc1` (stereo not given) registered a TGI of over 100 µM.

`O=C(COc1ccc(Br)cc1Br)N1N=C(c2ccc([N+](=O)[O-])o2)CC1(O)c1ccccc1` (stereo not given) yielded a TGI of 28 µM.

For the compound `COc1cc(-c2nn(-c3ccc(NC(=O)c4ccc(Cl)c(C(F)(F)F)c4)cc3)cc2-c2ccncc2)ccc1Cl`, the GI50 was 2620 nM and the TGI was over 61.9 µM.

Turning to `O=C(Nc1ccccc1OC(F)(F)F)Nc1n[nH]c2ccccc12`, the GI50 is 42200 nM and the TGI is over 100 µM.

Take `O=C(/C=C/C12c3ccccc3C(c3ccccc31)C1C(=O)NC(=O)C12)c1ccncc1` (stereo not given): the GI50 is 2100 nM and the TGI was 4.57 µM.

Compound `O=C1C(=O)N(c2ccc(Cl)cc2Cl)C(=O)C(=O)C1c1nc2ccccc2s1` had a TGI of over 100 µM.

In the case of `O=CN/C=C/c1cc(O)ccc1O`, the TGI was over 78.5 µM.

Take `COC(=O)[C@@H](NC(=O)CNC(=O)[C@H]1CCCN1C(=O)C(Cc1ccccc1)NC(=S)Nc1cc(C(F)(F)F)cc(C(F)(F)F)c1)C(C)C` (stereo not given in full) (X6-[ξF][dP]GV-OMe): the GI50 is 1840 nM and the TGI worked out at 3.38 µM.

For the compound `Cn1cc(C2=C(c3cn(C)c4ncccc34)C(=O)NC2=O)c2ccccc21`, the GI50 was 8560 nM and the TGI was over 25 µM.

In the case of `Clc1cc2nsnc2c(Cl)n1`, the TGI was 44.4 µM.

As to `O=C1/C(=C/c2cccc([N+](=O)[O-])c2)COc2ccc(O)cc21`, the GI50 was 2020 nM and the TGI came to 4.24 µM.

For the compound `Clc1ccc2c(NCCCCNc3nc(N4CCCCC4)nc4ccccc34)ccnc2c1`, the GI50 is 1890 nM and the TGI was 3.82 µM.

Turning to `Cc1nc2ccccc2c(=O)n1-c1ccccc1I`, the TGI is over 100 µM.

A further assay has as its system SK-MEL-5 melanoma. Description: NCI anticancer screen, dose series, 48 h.
In turn, `O=C1C2C(C(=O)N1OS(=O)(=O)c1ccccc1)N(Cc1ccccc1)C(=O)N2Cc1ccccc1` (stereo not given) had a TGI of over 100 µM.

`O=C(COc1ccc(Br)cc1Br)N1N=C(c2ccc([N+](=O)[O-])o2)CC1(O)c1ccccc1` (stereo not given) had a TGI of 16.1 µM.

Turning to `COc1cc(-c2nn(-c3ccc(NC(=O)c4ccc(Cl)c(C(F)(F)F)c4)cc3)cc2-c2ccncc2)ccc1Cl`, the GI50 was 1660 nM and the TGI is 3.15 µM.

`O=C(Nc1ccccc1OC(F)(F)F)Nc1n[nH]c2ccccc12`: the GI50 was 28700 nM and the TGI was over 100 µM.

As for `O=C(/C=C/C12c3ccccc3C(c3ccccc31)C1C(=O)NC(=O)C12)c1ccncc1` (stereo not given), the GI50 was 1720 nM and the TGI came out at 3.25 µM.

`O=C1C(=O)N(c2ccc(Cl)cc2Cl)C(=O)C(=O)C1c1nc2ccccc2s1` had a TGI of over 100 µM.

As to `O=CN/C=C/c1cc(O)ccc1O`, the TGI turned out to be 39.3 µM.

As to `COC(=O)[C@@H](NC(=O)CNC(=O)[C@H]1CCCN1C(=O)C(Cc1ccccc1)NC(=S)Nc1cc(C(F)(F)F)cc(C(F)(F)F)c1)C(C)C` (stereo not given in full) (X6-[ξF][dP]GV-OMe), the GI50 is 1450 nM and the TGI came out at 2.79 µM.

`Cn1cc(C2=C(c3cn(C)c4ncccc34)C(=O)NC2=O)c2ccccc21`: the GI50 was 6270 nM and the TGI was over 17.6 µM.

Turning to `Clc1cc2nsnc2c(Cl)n1`, the TGI came to 32.7 µM.

On to `O=C1/C(=C/c2cccc([N+](=O)[O-])c2)COc2ccc(O)cc21`, for which the GI50 was 1800 nM and the TGI is 3.37 µM.

Take `Clc1ccc2c(NCCCCNc3nc(N4CCCCC4)nc4ccccc34)ccnc2c1`: the GI50 is 1770 nM and the TGI was 3.18 µM.

`Cc1nc2ccccc2c(=O)n1-c1ccccc1I` displayed a TGI of over 100 µM.

A further assay concerns SW-620 colon. Put plainly: NCI anticancer screen, dose series, 48 h.
`O=C1C2C(C(=O)N1OS(=O)(=O)c1ccccc1)N(Cc1ccccc1)C(=O)N2Cc1ccccc1` (stereo not given) gave a TGI of over 100 µM.

Compound `O=C(COc1ccc(Br)cc1Br)N1N=C(c2ccc([N+](=O)[O-])o2)CC1(O)c1ccccc1` (stereo not given) returned a TGI of 33.3 µM.

Take `COc1cc(-c2nn(-c3ccc(NC(=O)c4ccc(Cl)c(C(F)(F)F)c4)cc3)cc2-c2ccncc2)ccc1Cl`: the GI50 was 3.31 µM and the TGI was over 100 µM.

`O=C(Nc1ccccc1OC(F)(F)F)Nc1n[nH]c2ccccc12`: the GI50 is 36.8 µM and the TGI was over 100 µM.

As to `O=C(/C=C/C12c3ccccc3C(c3ccccc31)C1C(=O)NC(=O)C12)c1ccncc1` (stereo not given), the GI50 was 2.47 µM and the TGI is 7.95 µM.

Turning to `O=C1C(=O)N(c2ccc(Cl)cc2Cl)C(=O)C(=O)C1c1nc2ccccc2s1`, the TGI is over 100 µM.

For the compound `O=CN/C=C/c1cc(O)ccc1O`, the TGI turned out to be 21.5 µM.

With `COC(=O)[C@@H](NC(=O)CNC(=O)[C@H]1CCCN1C(=O)C(Cc1ccccc1)NC(=S)Nc1cc(C(F)(F)F)cc(C(F)(F)F)c1)C(C)C` (stereo not given in full) (X6-[ξF][dP]GV-OMe), the GI50 is 3.72 µM and the TGI worked out at 24.5 µM.

With `Cn1cc(C2=C(c3cn(C)c4ncccc34)C(=O)NC2=O)c2ccccc21`, the GI50 is 9.7 µM and the TGI is over 25 µM.

`Clc1cc2nsnc2c(Cl)n1` gave a TGI of 27.8 µM.

With `O=C1/C(=C/c2cccc([N+](=O)[O-])c2)COc2ccc(O)cc21`, the GI50 was 0.521 µM and the TGI turned out to be 2.08 µM.

Consider `Clc1ccc2c(NCCCCNc3nc(N4CCCCC4)nc4ccccc34)ccnc2c1`, for which the GI50 is 1.59 µM and the TGI was determined as 4.78 µM.

`Cc1nc2ccccc2c(=O)n1-c1ccccc1I`: the TGI was over 100 µM.

The next assay deals with UACC-62 melanoma. Put plainly: NCI anticancer screen, dose series, 48 h.
`O=C1C2C(C(=O)N1OS(=O)(=O)c1ccccc1)N(Cc1ccccc1)C(=O)N2Cc1ccccc1` (stereo not given) displayed a TGI of over 100 µM.

As to `O=C(COc1ccc(Br)cc1Br)N1N=C(c2ccc([N+](=O)[O-])o2)CC1(O)c1ccccc1` (stereo not given), the TGI came out at 18.7 µM.

Take `COc1cc(-c2nn(-c3ccc(NC(=O)c4ccc(Cl)c(C(F)(F)F)c4)cc3)cc2-c2ccncc2)ccc1Cl`: the GI50 is 2200 nM and the TGI is 5.44 µM.

With `O=C(Nc1ccccc1OC(F)(F)F)Nc1n[nH]c2ccccc12`, the GI50 is 31700 nM and the TGI is over 100 µM.

As for `O=C(/C=C/C12c3ccccc3C(c3ccccc31)C1C(=O)NC(=O)C12)c1ccncc1` (stereo not given), the GI50 was 1870 nM and the TGI is 3.88 µM.

Turning to `O=C1C(=O)N(c2ccc(Cl)cc2Cl)C(=O)C(=O)C1c1nc2ccccc2s1`, the TGI is over 100 µM.

Compound `O=CN/C=C/c1cc(O)ccc1O` gave a TGI of 27.3 µM.

Turning to `COC(=O)[C@@H](NC(=O)CNC(=O)[C@H]1CCCN1C(=O)C(Cc1ccccc1)NC(=S)Nc1cc(C(F)(F)F)cc(C(F)(F)F)c1)C(C)C` (stereo not given in full) (X6-[ξF][dP]GV-OMe), the GI50 was 1790 nM and the TGI was found to be 3.98 µM.

Consider `Cn1cc(C2=C(c3cn(C)c4ncccc34)C(=O)NC2=O)c2ccccc21`, for which the GI50 is 11700 nM and the TGI is over 25 µM.

Consider `Clc1cc2nsnc2c(Cl)n1`, for which the TGI is over 100 µM.

Regarding `O=C1/C(=C/c2cccc([N+](=O)[O-])c2)COc2ccc(O)cc21`, the GI50 is 1920 nM and the TGI amounted to 4.03 µM.

As to `Clc1ccc2c(NCCCCNc3nc(N4CCCCC4)nc4ccccc34)ccnc2c1`, the GI50 is 1790 nM and the TGI came to 3.48 µM.

`Cc1nc2ccccc2c(=O)n1-c1ccccc1I` showed a TGI of over 100 µM.
